Test results published in patent publication US11725037B2, “Peptide dual agonists of GIPR and GLP2R” (University of Copenhagen, priority 2017, dated 2023).
Peptide text beside a SMILES is read from it. * marks the point of attachment. Palmitoyl = CCCCCCCCCCCCCCCC(=O)*

What was measured:
human GIP receptor = target: T1, human GIP receptor (Homo sapiens, UniProt P48546); test: cAMP accumulation assay (HitHunter cAMP XS) in transiently transfected COS-7 cells expressing the human GIP receptor; assay type: cell-based; conditions: for Emax at 10 µM: COS-7, read-out: Emax (10 μM), GIP receptor; for fold (fold change of native GIP), GIP receptor: EC50 relative to native GIP; for EC50: logEC50, GIP receptor, log value, cAMP, COS-7
T1 construct: host or cells: COS-7 (transient, calcium phosphate; pCMV-Script vector)
T1 sequence (P48546 22-466): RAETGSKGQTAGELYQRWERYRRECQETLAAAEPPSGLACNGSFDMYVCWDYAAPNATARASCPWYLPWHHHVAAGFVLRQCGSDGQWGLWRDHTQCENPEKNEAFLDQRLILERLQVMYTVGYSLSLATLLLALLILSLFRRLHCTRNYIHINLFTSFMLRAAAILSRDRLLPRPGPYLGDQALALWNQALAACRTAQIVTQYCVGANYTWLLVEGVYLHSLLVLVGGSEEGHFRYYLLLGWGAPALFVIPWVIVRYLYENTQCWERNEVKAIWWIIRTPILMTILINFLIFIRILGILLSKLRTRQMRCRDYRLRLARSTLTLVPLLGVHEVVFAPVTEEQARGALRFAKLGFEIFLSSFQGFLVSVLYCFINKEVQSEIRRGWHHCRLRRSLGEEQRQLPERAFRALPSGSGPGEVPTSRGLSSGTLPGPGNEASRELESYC
Protocol: (§1) The day after, the cells were washed twice with Hepes buffered saline (HBS) buffer and incubated with HBS and 1 mM 3-isobutyl-1-methylxanthine (IBMX) for 30 min at 37° C. Ligands were added and incubated for 30 min at 37° C. The HitHunter™ cAMP XS assay (DiscoveRx) was carried out according to the manufacturer's instructions.

human GLP-2 receptor = target: T2, human GLP-2 receptor (Homo sapiens, UniProt O95838); test: cAMP accumulation assay (HitHunter cAMP XS) in transiently transfected COS-7 cells expressing the human GLP-2 receptor; assay type: cell-based; conditions: for Emax at 10 µM: COS-7, read-out: Emax (10 μM), GLP-2 receptor; for fold (fold change of native GLP-2), GLP-2 receptor: EC50 relative to native GLP-2
T2 construct: host or cells: COS-7 (transient, calcium phosphate; pCMV-Script vector)
T2 sequence (O95838 1-553): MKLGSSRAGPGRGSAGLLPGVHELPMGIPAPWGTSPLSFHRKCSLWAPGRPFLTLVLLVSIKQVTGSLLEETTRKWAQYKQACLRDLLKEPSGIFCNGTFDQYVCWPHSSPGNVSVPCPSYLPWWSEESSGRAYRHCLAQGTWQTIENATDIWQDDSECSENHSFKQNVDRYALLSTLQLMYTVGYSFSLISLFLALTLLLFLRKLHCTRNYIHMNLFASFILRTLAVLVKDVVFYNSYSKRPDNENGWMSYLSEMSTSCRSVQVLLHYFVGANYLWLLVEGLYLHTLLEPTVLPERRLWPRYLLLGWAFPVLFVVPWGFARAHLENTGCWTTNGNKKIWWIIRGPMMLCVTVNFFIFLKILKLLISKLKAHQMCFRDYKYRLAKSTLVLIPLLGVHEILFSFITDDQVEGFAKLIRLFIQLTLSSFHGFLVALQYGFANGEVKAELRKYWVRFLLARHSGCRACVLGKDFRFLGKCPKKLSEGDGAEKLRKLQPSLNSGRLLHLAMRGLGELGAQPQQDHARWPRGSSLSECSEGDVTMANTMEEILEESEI
Protocol: as §1

| Structure (SMILES) | Emax at 10 µM (human GIP receptor) | potency (and efficacy) on the GIP receptor compared with native GIP, in words (human GIP receptor; Table 1) | fold (fold change of native GIP), GIP receptor (human GIP receptor; Table 1) | Emax at 10 µM (human GLP-2 receptor) | potency and efficacy on the GLP-2R compared with native GLP-2, in words (human GLP-2 receptor; Table 1) | fold (fold change of native GLP-2), GLP-2 receptor (human GLP-2 receptor; Table 1) | fold (fold change of native GIP), GIP receptor (human GIP receptor; Table 2) | EC50 (human GIP receptor; Table 2) | fold (fold change of native GLP-2), GLP-2 receptor (human GLP-2 receptor; Table 2) | EC50 (human GLP-2 receptor; logEC50, GLP-2 receptor, Table 2, cAMP, COS-7) |
| --- | --- | --- | --- | --- | --- | --- | --- | --- | --- | --- |
| CC[C@H](C)[C@H](NC(=O)[C@H](Cc1ccccc1)NC(=O)[C@H](CC(=O)O)NC(=O)[C@H](CCCNC(=N)N)NC(=O)[C@H](C)NC(=O)[C@H](C)NC(=O)[C@H](CC(C)C)NC(=O)[C@H](CC(N)=O)NC(=O)[C@H](CC(=O)O)NC(=O)[C@H](CC(C)C)NC(=O)[C@@H](NC(=O)[C@@H](NC(=O)[C@H](CO)NC(=O)[C@H](Cc1ccc(O)cc1)NC(=O)[C@H](CC(=O)O)NC(=O)[C@H](CO)NC(=O)[C@@H](NC(=O)[C@H](Cc1ccccc1)NC(=O)[C@@H](NC(=O)CNC(=O)[C@H](CC(=O)O)NC(=O)[C@H](C)NC(=O)[C@@H](N)Cc1c[nH]cn1)[C@@H](C)O)[C@@H](C)CC)[C@@H](C)O)[C@@H](C)CC)C(=O)N[C@@H](CC(N)=O)C(=O)N[C@@H](Cc1c[nH]c2ccccc12)C(=O)N[C@@H](CC(C)C)C(=O)N[C@H](C(=O)N[C@@H](CCC(N)=O)C(=O)N[C@H](C(=O)N[C@@H](CCCCN)C(=O)N[C@H](C(=O)N[C@H](C(=O)N[C@@H](CCCCN)C(=O)O)[C@@H](C)O)[C@@H](C)CC)[C@@H](C)O)[C@@H](C)CC [Co-agonist 18] | 89% | almost the same potency and efficacy | 7.4 fold | 94% | almost the same potency and efficacy | 4.4 fold | – | – | – | – |
| CCCCCCCCCCCCCCCC(=O)NCCCC[C@H](NC(=O)[C@H](C)NC(=O)[C@H](C)NC(=O)[C@H](CC(C)C)NC(=O)[C@H](CC(N)=O)NC(=O)[C@H](CC(=O)O)NC(=O)[C@H](CC(C)C)NC(=O)[C@@H](NC(=O)[C@@H](NC(=O)[C@H](CO)NC(=O)[C@H](Cc1ccc(O)cc1)NC(=O)[C@H](CC(=O)O)NC(=O)[C@H](CO)NC(=O)[C@H](CO)NC(=O)[C@H](Cc1ccccc1)NC(=O)[C@@H](NC(=O)CNC(=O)[C@H](CC(=O)O)NC(=O)[C@H](C)NC(=O)[C@@H](N)Cc1c[nH]cn1)[C@@H](C)O)[C@@H](C)O)[C@@H](C)CC)C(=O)N[C@@H](CC(=O)O)C(=O)N[C@@H](Cc1ccccc1)C(=O)N[C@H](C(=O)N[C@@H](CC(N)=O)C(=O)N[C@@H](Cc1c[nH]c2ccccc12)C(=O)N[C@@H](CC(C)C)C(=O)N[C@H](C(=O)N[C@@H](CCC(N)=O)C(=O)N[C@H](C(=O)N[C@@H](CCCCN)C(=O)N[C@H](C(=O)N[C@H](C(=O)N[C@@H](CC(=O)O)C(=O)O)[C@@H](C)O)[C@@H](C)CC)[C@@H](C)O)[C@@H](C)CC)[C@@H](C)CC [Co-agonist 21] (H-HADGTFSSDYSTILDNLAAK(Palmitoyl)DFINWLIQTKITD-OH; N-terminus and C-terminus assumed) | 94% | – | – | 75% | – | – | 381 fold | 33.9 nM | 5.0 fold | – |
| CCCCCCCCCCCCCCCC(=O)N[C@@H](Cc1c[nH]cn1)C(=O)N[C@@H](C)C(=O)N[C@@H](CC(=O)O)C(=O)NCC(=O)N[C@H](C(=O)N[C@@H](Cc1ccccc1)C(=O)N[C@@H](CO)C(=O)N[C@@H](CO)C(=O)N[C@@H](CC(=O)O)C(=O)N[C@@H](Cc1ccc(O)cc1)C(=O)N[C@@H](CO)C(=O)N[C@H](C(=O)N[C@H](C(=O)N[C@@H](CC(C)C)C(=O)N[C@@H](CC(=O)O)C(=O)N[C@@H](CC(N)=O)C(=O)N[C@@H](CC(C)C)C(=O)N[C@@H](C)C(=O)N[C@@H](C)C(=O)N[C@@H](CCCNC(=N)N)C(=O)N[C@@H](CC(=O)O)C(=O)N[C@@H](Cc1ccccc1)C(=O)N[C@H](C(=O)N[C@@H](CC(N)=O)C(=O)N[C@@H](Cc1c[nH]c2ccccc12)C(=O)N[C@@H](CC(C)C)C(=O)N[C@H](C(=O)N[C@@H](CCC(N)=O)C(=O)N[C@H](C(=O)N[C@@H](CCCCN)C(=O)N[C@H](C(=O)N[C@H](C(=O)N[C@@H](CC(=O)O)C(=O)O)[C@@H](C)O)[C@@H](C)CC)[C@@H](C)O)[C@@H](C)CC)[C@@H](C)CC)[C@@H](C)CC)[C@@H](C)O)[C@@H](C)O [Co-agonist 22] (Palmitoyl-HADGTFSSDYSTILDNLAARDFINWLIQTKITD-OH) | 100% | – | – | 72% | – | – | – | 0.407 nM | – | 1.32 nM |
